ChEMBL document CHEMBL1201862, “PubChem BioAssay data set” (2004)
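Method: 48-hour compound exposure of cells in 96-well plates, five concentrations, linear interpolation of endpoints. At the GI50, growth is halved.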 The source made the active and inactive calls. No stated cut-off is given here; in the data, active = GI50 up to about 1.1 µM and inactive = higher.

How the values were obtained:
Assay in all cases: DTP human tumour cell line panel, 48 h
ACHN = tested on: ACHN
BT-549 = tested on: BT-549
CCRF-CEM = tested on: CCRF-CEM
COLO 205 = tested on: COLO 205
HCT-116 = tested on: HCT-116
HOP-92 = tested on: HOP-92
KM12 = tested on: KM12
Malme-3M = tested on: Malme-3M
OVCAR-5 = tested on: OVCAR-5
OVCAR-8 = tested on: OVCAR-8
PC-3 = tested on: PC-3
RPMI-8226 = tested on: RPMI-8226
RXF 393 = tested on: RXF 393
SK-MEL-2 = tested on: SK-MEL-2
SNB-75 = tested on: SNB-75
SW-620 = tested on: SW-620
UACC-257 = tested on: UACC-257
UO-31 = tested on: UO-31
HCC 2998 = tested on: HCC 2998

Measured: GI50

Fc1c(F)c(C(F)(F)F)c(F)c(F)c1N/N=C/c1cn(Cc2ccccc2)c2ccccc12
inactive: ACHN 26.7 µM | BT-549 30.2 µM | CCRF-CEM 20.1 µM | COLO 205 13.5 µM | HCT-116 23.1 µM | HOP-92 24 µM | KM12 20 µM | Malme-3M 30.4 µM | OVCAR-5 19.2 µM | OVCAR-8 36.6 µM | PC-3 27.4 µM | RPMI-8226 25.9 µM | RXF 393 17.7 µM | SK-MEL-2 25.6 µM | SNB-75 20 µM | SW-620 30.9 µM | UACC-257 21.5 µM | UO-31 23.4 µM

C1=C(c2ccccc2)NC2=N[C@H]3CCCC[C@@H]3N2C1c1ccccc1 (stereo not given in full)
inactive: ACHN 13.7 µM | BT-549 11.4 µM | CCRF-CEM 6.67 µM | COLO 205 11 µM | HCC 2998 14.4 µM | HCT-116 7.67 µM | HOP-92 12.7 µM | KM12 10.1 µM | Malme-3M 12.8 µM | OVCAR-5 13.5 µM | OVCAR-8 13.6 µM | PC-3 11.4 µM | RPMI-8226 4.82 µM | SK-MEL-2 17.8 µM | SNB-75 11.3 µM | SW-620 13.2 µM | UACC-257 14.6 µM | UO-31 12.2 µM

Cn1c(=O)c2nc(CS(=O)(=O)Cc3nc4c(=O)n(C)c(=O)n(C)c4[nH]3)[nH]c2n(C)c1=O
inactive: ACHN > 100 µM | BT-549 > 100 µM | CCRF-CEM > 100 µM | COLO 205 > 100 µM | HCT-116 > 100 µM | KM12 > 100 µM | Malme-3M > 100 µM | OVCAR-5 > 100 µM | OVCAR-8 > 100 µM | PC-3 > 100 µM | RPMI-8226 > 100 µM | RXF 393 > 100 µM | SK-MEL-2 > 100 µM | SNB-75 > 100 µM | SW-620 > 100 µM | UACC-257 > 100 µM | UO-31 > 100 µM

CCCCC(=O)Nc1ccc2c(C)cc(-c3ccc(-c4cc(-c5ccc(C)cc5)cc(-c5ccc(-c6cc(C)c7ccc(NC(=O)CCCC)nc7n6)cc5)n4)cc3)nc2n1
inactive: ACHN > 100 µM | BT-549 > 100 µM | CCRF-CEM > 100 µM | COLO 205 > 100 µM | HCC 2998 > 100 µM | HCT-116 > 100 µM | HOP-92 78.9 µM | KM12 > 100 µM | Malme-3M > 100 µM | OVCAR-5 > 100 µM | PC-3 > 100 µM | RPMI-8226 > 100 µM | SK-MEL-2 > 100 µM | SNB-75 > 100 µM | UACC-257 > 100 µM | UO-31 > 100 µM

O=C(O)c1ccccc1/C=N\N=C1NCCN1
inactive: ACHN > 100 µM | BT-549 49.9 µM | CCRF-CEM > 100 µM | COLO 205 > 100 µM | HCC 2998 > 100 µM | HCT-116 > 100 µM | HOP-92 > 100 µM | KM12 > 100 µM | Malme-3M > 100 µM | OVCAR-5 > 100 µM | OVCAR-8 > 100 µM | PC-3 > 100 µM | RPMI-8226 > 100 µM | SK-MEL-2 > 100 µM | SNB-75 > 100 µM | SW-620 > 100 µM | UACC-257 > 100 µM | UO-31 40.9 µM

COc1ccc(CC(=O)N2CCC3(C)CC(=O)CC=C23)cc1OC (stereo not given)
inactive: ACHN > 100 µM | BT-549 > 100 µM | COLO 205 > 100 µM | HCT-116 > 100 µM | HOP-92 > 100 µM | KM12 > 100 µM | Malme-3M > 100 µM | OVCAR-5 > 100 µM | OVCAR-8 > 100 µM | PC-3 > 100 µM | RPMI-8226 > 100 µM | RXF 393 > 100 µM | SK-MEL-2 > 100 µM | SW-620 > 100 µM | UO-31 > 100 µM

COc1ccc(C2=NN=C3C(c4ccccc4)=Nc4ccccc4N3C2)cc1
inactive: ACHN 14.1 µM | BT-549 40 µM | CCRF-CEM 2.16 µM | COLO 205 15.3 µM | HCC 2998 46.8 µM | HCT-116 14.6 µM | HOP-92 85.9 µM | KM12 21.4 µM | Malme-3M 25.2 µM | OVCAR-5 54.2 µM | PC-3 31.6 µM | RPMI-8226 38.8 µM | RXF 393 10.9 µM | SK-MEL-2 22.6 µM | SW-620 14.9 µM | UACC-257 27.5 µM | UO-31 6.46 µM

CNC(=O)c1cc2nc3ccccc3c(=O)n2c2ccccc12
inactive: ACHN > 10 µM | BT-549 > 10 µM | CCRF-CEM > 10 µM | COLO 205 > 10 µM | HCC 2998 > 10 µM | HCT-116 > 10 µM | HOP-92 > 10 µM | KM12 > 10 µM | Malme-3M > 10 µM | OVCAR-5 > 10 µM | OVCAR-8 > 10 µM | PC-3 > 10 µM | RPMI-8226 > 10 µM | RXF 393 > 10 µM | SK-MEL-2 > 10 µM | SW-620 > 10 µM | UACC-257 > 10 µM | UO-31 > 10 µM

CC(C)[C@@H](C)[C@@]1(C)C[C@@H]1[C@@H](C)[C@H]1CC[C@@H]([C@@H]2CC=C3C[C@@H](O)CC[C@]3(C)C2=O)[C@]1(C)CCO
inactive: ACHN 12.5 µM | BT-549 16.6 µM | COLO 205 11.9 µM | HCC 2998 4.2 µM | HCT-116 10.1 µM | KM12 2.82 µM | Malme-3M 14 µM | OVCAR-5 11.6 µM | OVCAR-8 12.7 µM | PC-3 10.1 µM | RPMI-8226 12.2 µM | RXF 393 3.3 µM | SK-MEL-2 18.3 µM | SNB-75 5.66 µM | SW-620 7.55 µM | UACC-257 14.3 µM | UO-31 15.2 µM

O=c1c2cc(S(=O)(=O)O)ccc2nc(COc2ccc(Oc3ccc(Cl)cc3Cl)cc2)n1C(=S)Nc1ccc(Cl)cc1
inactive: ACHN 23.6 µM | BT-549 19.6 µM | CCRF-CEM 34.7 µM | COLO 205 18 µM | HCT-116 22.5 µM | HOP-92 18.1 µM | KM12 22.5 µM | Malme-3M 21.6 µM | OVCAR-5 19.8 µM | OVCAR-8 21.6 µM | PC-3 34.1 µM | RPMI-8226 26.9 µM | RXF 393 15 µM | SK-MEL-2 18.4 µM | SNB-75 18.8 µM | SW-620 20.9 µM | UACC-257 25.4 µM | UO-31 15.8 µM

Cc1ccc(S(=O)(=O)NC(=O)NC(Cc2ccc(O)c(O)c2)C(=O)O)cc1 (stereo not given)
inactive: ACHN > 100 µM | BT-549 > 100 µM | CCRF-CEM 25.1 µM | COLO 205 > 100 µM | HCT-116 > 100 µM | HOP-92 80.5 µM | KM12 > 100 µM | Malme-3M > 100 µM | OVCAR-5 > 100 µM | OVCAR-8 81.8 µM | PC-3 > 100 µM | RPMI-8226 55.7 µM | RXF 393 14 µM | SK-MEL-2 > 100 µM | SW-620 24.9 µM | UACC-257 > 100 µM | UO-31 > 100 µM

O=C(c1cccnc1)N1N=C(c2ccccc2)CC1(O)c1cc(F)c(Cl)cc1Cl (stereo not given)
inactive: ACHN 23.2 µM | BT-549 20.3 µM | CCRF-CEM 24.6 µM | COLO 205 14.1 µM | HCT-116 13.8 µM | HOP-92 20.7 µM | KM12 25.6 µM | Malme-3M 29.2 µM | OVCAR-5 32.8 µM | OVCAR-8 25.5 µM | PC-3 20.5 µM | RPMI-8226 18.2 µM | RXF 393 16.7 µM | SK-MEL-2 19.4 µM | SNB-75 16.4 µM | SW-620 28.3 µM | UACC-257 18.6 µM | UO-31 25.6 µM

CC(C)=CCN1CC(C)C(=O)Nc2cc(Cl)ccc21 (stereo not given)
inactive: ACHN 25 µM | BT-549 18.7 µM | CCRF-CEM 29.4 µM | COLO 205 19.8 µM | HCC 2998 28.5 µM | HCT-116 16.2 µM | HOP-92 10.8 µM | KM12 25.2 µM | Malme-3M 25.1 µM | OVCAR-5 34 µM | OVCAR-8 29.7 µM | PC-3 18.6 µM | RPMI-8226 28.8 µM | RXF 393 28.4 µM | SK-MEL-2 16.2 µM | SW-620 26.7 µM | UACC-257 13.3 µM | UO-31 28.6 µM

Cc1ccc(-c2cc(N)n(-c3nc4c(c(=O)n(C)c(=O)n4C)n3C)n2)cc1
inactive: ACHN > 100 µM | BT-549 > 100 µM | CCRF-CEM > 100 µM | COLO 205 > 100 µM | HCC 2998 > 100 µM | HCT-116 > 100 µM | HOP-92 > 100 µM | KM12 > 100 µM | Malme-3M 45.6 µM | OVCAR-5 > 100 µM | OVCAR-8 > 100 µM | PC-3 > 100 µM | RPMI-8226 > 100 µM | RXF 393 > 100 µM | SK-MEL-2 > 100 µM | UACC-257 > 100 µM | UO-31 > 100 µM

NC(=O)C1CCCN1Cc1ccc2c(c1)OCO2 (stereo not given)
inactive: ACHN > 100 µM | BT-549 > 100 µM | CCRF-CEM > 100 µM | COLO 205 > 100 µM | HCT-116 > 100 µM | HOP-92 > 100 µM | KM12 > 100 µM | Malme-3M > 100 µM | OVCAR-5 > 100 µM | OVCAR-8 > 100 µM | PC-3 > 100 µM | RPMI-8226 > 100 µM | RXF 393 > 100 µM | SK-MEL-2 > 100 µM | SNB-75 > 100 µM | SW-620 > 100 µM | UACC-257 > 100 µM | UO-31 > 100 µM
